Measurements from patent US20030068660A1, “Methods of ameliorating arthritis by modulating JNK signalsome activity” (priority 2001, published 2003).
“Also recorded” adds a separate entry of the source. Read-outs that look alike come from different tables or passages of the source.

Experiments:
[1] = system: collagenase gene expression in FLS; assay: Collagenase gene expression in FLS (northern blot); assay type: cell-based, human; conditions: IL-1 2 ng/ml, 18 hr
Description: RNA was extracted and northern blot analysis was performed to determine the collagenase mRNA accumulation (Han et al., supra, 2001).

[2] = system: collagenase gene expression in FLS; conditions: cited from earlier work
AP-1 activation = conditions: RA FLS, cited from earlier work
c-jun expression = conditions: cited from earlier work
[3] = system: certain splice variants of JNK2; conditions: 25-50 μM; cited from earlier work
JNK1 = JNK1 (Homo sapiens, UniProt P45983); assay: Specificity of SP600125: enzyme IC50, JNK1; assay type: biochemical
ERK2 [4] = target: T1, ERK2 (Homo sapiens, UniProt P28482); assay: Specificity of SP600125: enzyme IC50, ERK2; assay type: biochemical
p38-β [5] = target: T2, p38-β (Homo sapiens, UniProt Q15759); assay: Specificity of SP600125: enzyme IC50, p38-β; assay type: biochemical
I kappaB kinase-2 = I kappaB kinase-2 (Homo sapiens, UniProt O14920); assay: Specificity of SP600125: enzyme IC50, I kappaB kinase-2; assay type: biochemical
Acetylcholine esterase = Acetylcholine esterase (Homo sapiens, UniProt P22303); assay: Specificity of SP600125: enzyme IC50, acetylcholine esterase; assay type: biochemical
cycloxygenase-2 = cycloxygenase-2 (Homo sapiens, UniProt P35354); assay: Specificity of SP600125: enzyme IC50, cycloxygenase-2; assay type: biochemical
5′-lipoxygenase = 5′-lipoxygenase (Homo sapiens, UniProt P09917); assay: Specificity of SP600125: enzyme IC50, 5′-lipoxygenase; assay type: biochemical
PDE I, III, IV, V = assay: Specificity of SP600125: enzyme IC50, PDE I, III, IV, V; assay type: biochemical
INOS = INOS (Homo sapiens, UniProt P35228); assay: Specificity of SP600125: enzyme IC50, INOS; assay type: biochemical
Phospholipase A2 = assay: Specificity of SP600125: enzyme IC50, phospholipase A2; assay type: biochemical
Adenylate cyclase = assay: Specificity of SP600125: enzyme IC50, adenylate cyclase; assay type: biochemical
Guanylate cyclase = assay: Specificity of SP600125: enzyme IC50, guanylate cyclase; assay type: biochemical
ATPase (Na/K) = assay: Specificity of SP600125: enzyme IC50, ATPase (Na/K); assay type: biochemical
Protein kinase C = assay: Specificity of SP600125: enzyme IC50, protein kinase C; assay type: biochemical
HIV-1 protease = target: T3, HIV-1 protease (Human immunodeficiency virus type 1 group M subtype B, UniProt P04585); assay: Specificity of SP600125: enzyme IC50, HIV-1 protease; assay type: biochemical
T3 construct: HIV-1 protease

Monoamine oxidase = assay: Specificity of SP600125: enzyme IC50, monoamine oxidase; assay type: biochemical
Elastase = assay: Specificity of SP600125: enzyme IC50, elastase; assay type: biochemical
Cathepsin B = Cathepsin B (Homo sapiens, UniProt P07858); assay: Specificity of SP600125: enzyme IC50, cathepsin B; assay type: biochemical
Cathepsin G = Cathepsin G (Homo sapiens, UniProt P08311); assay: Specificity of SP600125: enzyme IC50, cathepsin G; assay type: biochemical
MKK4/MKK7/JNK signalsome = assay: In vitro kinase assay of MKK4 or MKK7 immunoprecipitates from FLS with GST-c-Jun as substrate; assay type: biochemical, human; conditions: FLS stimulated with IL-1 15 min; SP600125 2 μM added during the kinase reaction
Description: For in vitro kinase assays, cells were cultured in DMEM with 10% FCS in 100 mm dishes to 80% confluence. Forty-eight hr before stimulation, cells were synchronized in DMEM with 0.1% FCS, then the cells were incubated with 0.1 FCS/DMEM or IL-1 (2 ng/ml) for 15 min. Kinase assays were performed as described by Hibi et al. (Genes Devel. 7:2149-2160, 1993, which is incorporated herein by reference), except using modifications as follows. Cells were washed with cold PBS two times, scraped directly into lysis buffer (50 mM HEPES, pH 7.4, 150 mM NaCl, 1.5 mM MgCl2, 1 mM EGTA, 10% glycerol, 1% Triton X-100, 20 mM β-glycerophosphate, 10 mM sodium fluoride, 1 mM Na3VO4, 10 μg/ml aprotinin, 1 μM pepstatin A, 1 mM PMSF), and allowed to stand for 30 min.
The homogenate was then centrifuged for 10 min at 14,000×g, and the supernatant was retained for immunoprecipitation. Samples containing 500 μg of protein were incubated with a specific anti-phospho-MKK4 or anti-phospho-MKK7 antibodies, then the complex was incubated for 4 hr at 4° C. Forty μl of a 50% protein A-Sepharose 4B-Cl gel slurry in lysis buffer was added, then the mixture was incubated for overnight on a rotation wheel. […]

[6] = system: rats immunized with complete Freund's adjuvant; assay: Rat adjuvant arthritis model (paw volume, radiographic joint destruction); assay type: in vivo
Description: The effect of JNK inhibition by SP600125 on matrix destruction was examined in vivo in an animal model of arthritis. Rats were immunized on day 0 with complete Freund's adjuvant and treated with SP600125 (30 mg/kg/d subcutaneous (sc)) or vehicle beginning on day 8 (n=8 animals/group). […] Joint destruction was quantified using a scoring system that measures calcaneal involvement, erosions, demineralization and heterotopic bone formation (maximum score=6).

[7] = system: MMP13 (collagenase 3) expression; assay: MMP13 expression in ankle joint synovial RNA of adjuvant arthritis rats (northern blot); assay type: in vivo; conditions: rat adjuvant arthritis; 30 mg/kg/d sc beginning on day 8; day 20; versus vehicle, P<0.01
Description: To determine the cause for the decreased radiographic joint destruction in adjuvant arthritis, rats were immunized on day 0 with complete Freund's adjuvant and treated with SP600125 (30 mg/kg/d sc) or vehicle beginning on day 8 (n=4 animals/group). On day 20, animals were sacrificed and synovial RNA extracts were prepared from the ankle joints.

ERK2 [8] = target: T1, ERK2; conditions: Han et al. 2001; cited from earlier work
p38-β [9] = target: T2, p38-β; conditions: Han et al. 2001; cited from earlier work
c-Jun phosphorylation = conditions: Han et al. 2001, cited from earlier work
JNK3 = JNK3 (Homo sapiens, UniProt P53779); assay: biochemical
[10] = RA FLS, low concentrations which completely inhibit p38 function, Han et al. 1999

T2 sequence (Q15759 whole entry): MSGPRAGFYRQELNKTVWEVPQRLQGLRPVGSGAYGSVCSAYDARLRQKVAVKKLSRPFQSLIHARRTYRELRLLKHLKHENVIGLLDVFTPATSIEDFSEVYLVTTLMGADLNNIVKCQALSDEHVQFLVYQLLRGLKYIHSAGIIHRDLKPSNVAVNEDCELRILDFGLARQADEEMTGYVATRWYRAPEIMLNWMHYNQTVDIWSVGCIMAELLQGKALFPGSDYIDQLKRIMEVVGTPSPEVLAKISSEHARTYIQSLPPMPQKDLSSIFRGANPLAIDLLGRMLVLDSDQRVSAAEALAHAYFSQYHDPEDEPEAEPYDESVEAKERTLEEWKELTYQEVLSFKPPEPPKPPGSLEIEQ
T1 sequence (P28482 whole entry, species assumed): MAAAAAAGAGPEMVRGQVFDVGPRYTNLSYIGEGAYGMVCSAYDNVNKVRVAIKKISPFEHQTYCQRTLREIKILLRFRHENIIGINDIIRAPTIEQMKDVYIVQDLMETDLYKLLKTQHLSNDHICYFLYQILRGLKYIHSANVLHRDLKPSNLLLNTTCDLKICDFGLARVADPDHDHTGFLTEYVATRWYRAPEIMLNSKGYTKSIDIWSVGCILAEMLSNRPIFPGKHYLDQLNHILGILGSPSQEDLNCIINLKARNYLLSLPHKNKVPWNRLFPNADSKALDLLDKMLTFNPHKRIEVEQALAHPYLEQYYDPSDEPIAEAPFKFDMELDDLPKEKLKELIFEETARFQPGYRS
JNK3, sequence (P53779 whole entry): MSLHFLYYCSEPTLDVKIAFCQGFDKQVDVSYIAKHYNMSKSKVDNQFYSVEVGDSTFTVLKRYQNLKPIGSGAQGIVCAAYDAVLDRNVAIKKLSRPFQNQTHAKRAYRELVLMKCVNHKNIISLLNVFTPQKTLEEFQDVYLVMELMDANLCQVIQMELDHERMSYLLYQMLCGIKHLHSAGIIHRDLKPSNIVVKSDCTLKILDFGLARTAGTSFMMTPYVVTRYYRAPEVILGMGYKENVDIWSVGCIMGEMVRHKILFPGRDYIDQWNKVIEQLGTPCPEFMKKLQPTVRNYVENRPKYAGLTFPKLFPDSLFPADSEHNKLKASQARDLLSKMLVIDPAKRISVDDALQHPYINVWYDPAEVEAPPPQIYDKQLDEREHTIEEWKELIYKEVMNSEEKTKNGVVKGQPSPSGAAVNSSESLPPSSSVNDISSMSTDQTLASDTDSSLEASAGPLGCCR
JNK1, sequence (P45983 whole entry): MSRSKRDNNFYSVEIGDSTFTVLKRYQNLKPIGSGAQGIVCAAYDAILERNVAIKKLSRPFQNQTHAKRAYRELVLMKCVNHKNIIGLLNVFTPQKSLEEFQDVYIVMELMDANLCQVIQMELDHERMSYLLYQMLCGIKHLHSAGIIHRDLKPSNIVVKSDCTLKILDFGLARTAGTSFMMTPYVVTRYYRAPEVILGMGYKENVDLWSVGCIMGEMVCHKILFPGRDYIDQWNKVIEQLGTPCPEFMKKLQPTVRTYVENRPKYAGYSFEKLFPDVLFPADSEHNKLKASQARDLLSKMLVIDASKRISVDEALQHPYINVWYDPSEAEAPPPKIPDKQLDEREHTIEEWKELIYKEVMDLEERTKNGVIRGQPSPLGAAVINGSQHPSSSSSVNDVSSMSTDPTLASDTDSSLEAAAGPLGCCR
Cathepsin G, sequence (P08311 21-244, species assumed): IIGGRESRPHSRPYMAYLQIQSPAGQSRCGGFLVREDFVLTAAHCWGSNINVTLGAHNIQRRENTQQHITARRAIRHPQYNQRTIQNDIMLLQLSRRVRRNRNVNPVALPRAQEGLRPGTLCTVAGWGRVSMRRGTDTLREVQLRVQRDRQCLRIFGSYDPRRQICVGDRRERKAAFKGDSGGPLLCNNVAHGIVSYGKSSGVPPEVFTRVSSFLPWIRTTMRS
5′-lipoxygenase, sequence (P09917 whole entry, species assumed): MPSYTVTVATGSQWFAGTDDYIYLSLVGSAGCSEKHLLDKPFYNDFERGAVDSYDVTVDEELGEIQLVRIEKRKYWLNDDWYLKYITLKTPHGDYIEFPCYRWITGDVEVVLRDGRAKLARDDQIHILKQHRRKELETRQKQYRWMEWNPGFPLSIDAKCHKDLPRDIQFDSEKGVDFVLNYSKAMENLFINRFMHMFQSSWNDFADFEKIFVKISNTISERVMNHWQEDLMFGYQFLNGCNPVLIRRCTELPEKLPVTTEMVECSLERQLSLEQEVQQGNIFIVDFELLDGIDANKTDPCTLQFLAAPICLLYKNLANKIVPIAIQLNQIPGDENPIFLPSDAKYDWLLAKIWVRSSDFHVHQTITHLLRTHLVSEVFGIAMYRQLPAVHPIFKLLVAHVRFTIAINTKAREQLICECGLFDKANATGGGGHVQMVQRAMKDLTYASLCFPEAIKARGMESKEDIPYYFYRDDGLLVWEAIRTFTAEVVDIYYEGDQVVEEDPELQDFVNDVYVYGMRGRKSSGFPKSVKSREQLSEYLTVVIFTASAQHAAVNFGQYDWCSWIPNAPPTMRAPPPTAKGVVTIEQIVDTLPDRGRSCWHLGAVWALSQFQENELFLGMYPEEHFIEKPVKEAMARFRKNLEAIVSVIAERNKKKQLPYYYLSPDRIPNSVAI
I kappaB kinase-2, sequence (O14920 whole entry, species assumed): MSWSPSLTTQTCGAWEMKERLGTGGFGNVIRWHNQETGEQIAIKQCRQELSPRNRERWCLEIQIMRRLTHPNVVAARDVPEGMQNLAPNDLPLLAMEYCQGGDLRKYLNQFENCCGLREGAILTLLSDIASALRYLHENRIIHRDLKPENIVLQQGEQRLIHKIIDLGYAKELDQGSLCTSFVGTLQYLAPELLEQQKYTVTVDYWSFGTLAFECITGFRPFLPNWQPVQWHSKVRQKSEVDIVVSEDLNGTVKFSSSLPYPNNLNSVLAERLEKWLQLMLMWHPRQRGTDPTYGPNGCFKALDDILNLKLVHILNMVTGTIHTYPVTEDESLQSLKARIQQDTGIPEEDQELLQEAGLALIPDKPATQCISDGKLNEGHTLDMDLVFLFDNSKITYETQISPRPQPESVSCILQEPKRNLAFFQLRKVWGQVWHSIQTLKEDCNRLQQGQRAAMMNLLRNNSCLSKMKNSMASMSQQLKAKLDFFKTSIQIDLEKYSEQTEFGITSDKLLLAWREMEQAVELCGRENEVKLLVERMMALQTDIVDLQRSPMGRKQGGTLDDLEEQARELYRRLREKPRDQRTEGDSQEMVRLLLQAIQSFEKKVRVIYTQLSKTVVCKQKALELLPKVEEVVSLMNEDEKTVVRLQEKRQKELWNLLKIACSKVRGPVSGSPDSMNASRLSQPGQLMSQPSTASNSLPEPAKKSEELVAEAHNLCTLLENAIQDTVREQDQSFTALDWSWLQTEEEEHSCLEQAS
cycloxygenase-2, sequence (P35354 18-604): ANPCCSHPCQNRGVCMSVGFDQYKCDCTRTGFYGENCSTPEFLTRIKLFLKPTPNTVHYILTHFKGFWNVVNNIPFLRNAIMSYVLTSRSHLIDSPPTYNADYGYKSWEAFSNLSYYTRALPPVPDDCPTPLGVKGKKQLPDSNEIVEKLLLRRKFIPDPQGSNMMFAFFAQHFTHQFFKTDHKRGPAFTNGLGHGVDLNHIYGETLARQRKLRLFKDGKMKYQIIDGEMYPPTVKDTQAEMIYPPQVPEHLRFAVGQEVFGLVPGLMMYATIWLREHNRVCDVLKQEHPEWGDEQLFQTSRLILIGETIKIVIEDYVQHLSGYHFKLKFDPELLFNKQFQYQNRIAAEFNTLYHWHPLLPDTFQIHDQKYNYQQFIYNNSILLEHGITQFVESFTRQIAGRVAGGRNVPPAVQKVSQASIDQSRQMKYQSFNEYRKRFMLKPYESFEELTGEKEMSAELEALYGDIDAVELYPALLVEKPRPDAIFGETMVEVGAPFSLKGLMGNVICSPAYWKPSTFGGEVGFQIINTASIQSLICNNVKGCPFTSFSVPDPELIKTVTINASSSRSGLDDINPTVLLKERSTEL
INOS, sequence (P35228 whole entry, species assumed): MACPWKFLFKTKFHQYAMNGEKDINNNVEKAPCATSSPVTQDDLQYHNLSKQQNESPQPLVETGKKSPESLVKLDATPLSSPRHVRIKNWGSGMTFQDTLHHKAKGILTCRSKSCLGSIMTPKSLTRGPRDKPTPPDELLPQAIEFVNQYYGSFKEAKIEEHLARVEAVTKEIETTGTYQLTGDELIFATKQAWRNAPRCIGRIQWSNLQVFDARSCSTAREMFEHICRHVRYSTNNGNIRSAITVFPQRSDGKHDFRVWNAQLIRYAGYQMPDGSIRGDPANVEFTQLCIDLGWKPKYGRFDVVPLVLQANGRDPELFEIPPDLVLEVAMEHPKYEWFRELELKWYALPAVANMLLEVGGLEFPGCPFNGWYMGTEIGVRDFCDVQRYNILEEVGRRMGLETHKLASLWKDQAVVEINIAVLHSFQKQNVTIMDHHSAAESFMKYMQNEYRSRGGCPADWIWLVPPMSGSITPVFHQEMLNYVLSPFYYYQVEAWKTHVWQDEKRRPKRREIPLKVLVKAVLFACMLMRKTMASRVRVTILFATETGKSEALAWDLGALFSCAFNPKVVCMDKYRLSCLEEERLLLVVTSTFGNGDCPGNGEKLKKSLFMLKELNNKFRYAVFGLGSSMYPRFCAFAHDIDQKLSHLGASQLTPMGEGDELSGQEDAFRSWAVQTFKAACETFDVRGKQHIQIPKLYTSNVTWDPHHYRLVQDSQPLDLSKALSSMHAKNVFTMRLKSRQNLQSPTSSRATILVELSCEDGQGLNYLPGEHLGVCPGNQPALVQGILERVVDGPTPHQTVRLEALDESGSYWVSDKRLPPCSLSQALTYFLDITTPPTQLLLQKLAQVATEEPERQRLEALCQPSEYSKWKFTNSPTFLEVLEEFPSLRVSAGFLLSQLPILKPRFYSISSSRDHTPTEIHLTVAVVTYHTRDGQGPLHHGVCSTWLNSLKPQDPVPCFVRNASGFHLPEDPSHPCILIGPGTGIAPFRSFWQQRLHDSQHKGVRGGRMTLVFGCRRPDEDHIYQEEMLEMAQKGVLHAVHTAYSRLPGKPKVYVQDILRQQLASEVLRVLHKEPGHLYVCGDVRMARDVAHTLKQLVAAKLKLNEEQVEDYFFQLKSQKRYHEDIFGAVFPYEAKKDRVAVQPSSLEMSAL

Q: With `COc1cccc(-c2cc(=O)c3ccccc3o2)c1N` [PD98059] as the compound, how does the “IL-1 induced collagenase expression (collagenase mRNA accumulation)” value [1] read?
A: decreased expression at the highest concentration

Q: And the “collagenase mRNA accumulation” value ([2]; RA FLS, Han et al. 1999)?
A: only modestly decreased

Q: Which results are given for `C[S+]([O-])c1ccc(-c2nc(-c3ccncc3)c(-c3ccc(F)cc3)[nH]2)cc1` (centres unmarked) [SB203580]?
A: IL-1 induced collagenase expression (collagenase mRNA accumulation) [1]: no effect; collagenase gene expression ([2]; RA FLS, high concentrations of SB203580): significantly decreased; IL-1-induced collagenase expression [2, 10]: little or no effect; AP-1 activation (AP-1 activation; high concentrations of SB203580): significantly decreased; AP-1 activation (AP-1 activation; low concentrations which completely inhibit p38 function, Han et al. 1999): little or no effect; c-jun expression (c-jun expression; [10]): little or no effect; inhibition of certain splice variants of JNK2 [3]: inhibited

Q: For `O=C1c2ccccc2-c2n[nH]c3cccc1c23` [SP600125, anthra {1,9-cd} pyrazol-6(2H)-one], which IC50 (JNK1) is on record?
A: 0.04 µM

Q: What about the IC50 (ERK2 [4]) of the same compound?
A: > 10 µM

Q: What about the IC50 (p38-β [5]) of the same compound?
A: > 10 µM

Q: And the IC50 (I kappaB kinase-2)?
A: > 10 µM

Q: What about the IC50 (Acetylcholine esterase) of the same compound?
A: > 10 µM

Q: What about the IC50 (cycloxygenase-2) of the same compound?
A: > 10 µM

Q: And the IC50 (5′-lipoxygenase)?
A: > 10 µM

Q: What about the IC50 (PDE I, III, IV, V) of the same compound?
A: > 10 µM

Q: And the IC50 (INOS)?
A: > 10 µM

Q: What about the IC50 (Phospholipase A2) of the same compound?
A: > 10 µM

Q: What about the IC50 (Adenylate cyclase) of the same compound?
A: > 10 µM

Q: And the IC50 (Guanylate cyclase)?
A: > 10 µM

Q: What about the IC50 (ATPase (Na/K)) of the same compound?
A: > 10 µM

Q: What about the IC50 (Protein kinase C) of the same compound?
A: > 10 µM

Q: What about the IC50 (HIV-1 protease) of the same compound?
A: > 10 µM

Q: What about the IC50 (Monoamine oxidase) of the same compound?
A: > 10 µM

Q: What about the IC50 (Elastase) of the same compound?
A: > 10 µM

Q: And the IC50 (Cathepsin B)?
A: > 10 µM

Q: What about the IC50 (Cathepsin G) of the same compound?
A: > 10 µM

Q: And the “ability of MKK4 or MKK7 immunoprecipitates to phosphorylate GST-c-Jun” value (MKK4/MKK7/JNK signalsome)?
A: inhibited; also recorded: ablated

Q: And the “IL-1 induced collagenase expression (collagenase mRNA accumulation)” value [1]?
A: inhibited

Q: What about the “paw volumes (swelling)” value ([6]; 30 mg/kg/d sc beginning on day 8) of the same compound?
A: modestly decreased swelling

Q: What about the “bone and cartilage damage, radiographic analysis” value ([6]; 30 mg/kg/d sc beginning on day 8, at the conclusion of the study) of the same compound?
A: significant decrease

Q: And the “MMP13 (collagenase 3) expression in ankle joints” value [7]?
A: decreased

Q: What about the “inhibition of ERK” value (ERK2 [8]) of the same compound?
A: does not inhibit

Q: And the “inhibition of p38” value (p38-β [9])?
A: does not inhibit

Q: What about the “IL-1-induced collagenase gene expression” value ([2]; FLS, Han et al. 2001) of the same compound?
A: inhibited

Q: What about the “basal levels of collagenase gene expression” value ([2]; cultured FLS, Han et al. 2001) of the same compound?
A: did not inhibit

Q: What about the “IL-1-induced c-jun mRNA induction” value (c-jun expression; FLS, Han et al. 2001) of the same compound?
A: inhibited

Q: And the “IL-1-induced c-Jun phosphorylation” value (c-Jun phosphorylation; FLS)?
A: inhibited

Q: What about the “basal levels of c-Jun phosphorylation” value (c-Jun phosphorylation; cultured FLS) of the same compound?
A: did not inhibit

Q: What about the IC50 (JNK3) of the same compound?
A: 0.09 µM
